Tested on: Sprague-Dawley rats
Test: Topical administration of AGN 193109 to rats with Recovery group (Example 4)
Format: in vivo, rat
Description: This experiment is conducted as indicated in Example 2, except that the drug is 193109 rather than AGN 194310, and a Recovery group is monitored for a period of time post-treatment as in Example 3. Dosages of the '109 drug is the same as for the topical treatment with the '310 drug.

[1] = rats, topical, at the effective dose

## Cc1ccc(C2=CCC(C)(C)c3ccc(C#Cc4ccc(C(=O)O)cc4)cc32)cc1 [AGN 193109]
Male rats 12 weeks after administration
  reversibility (testes histology): repopulation of the tubules with males gametes in various stages of development
[1]
  histological analysis of the testes: absence of primary spermatocytes, spermatids and spermatozoa in the majority of animals' seminiferous tubules
  spermatogenic arrest (examination of the testes): spermatogenic arrest can be seen within thirty days after initiation of treatment

Source: US6521641B1, “Male anti-fertility agents” (Allergan, Inc., priority 1998, dated 2003)
